Source: BindingDB's records for doi:10.1074/jbc.M109.017632 (University of California San Francisco, 2009)

Columns and labels:
Assay in all cases: Binding Assay
Cytochrome P450 130 [1] = target: T1, Cytochrome P450 130 (Mycobacterium tuberculosis (strain CDC 1551 / Oshkosh), UniProt P9WPN4)
T1 sequence (P9WPN4 whole entry): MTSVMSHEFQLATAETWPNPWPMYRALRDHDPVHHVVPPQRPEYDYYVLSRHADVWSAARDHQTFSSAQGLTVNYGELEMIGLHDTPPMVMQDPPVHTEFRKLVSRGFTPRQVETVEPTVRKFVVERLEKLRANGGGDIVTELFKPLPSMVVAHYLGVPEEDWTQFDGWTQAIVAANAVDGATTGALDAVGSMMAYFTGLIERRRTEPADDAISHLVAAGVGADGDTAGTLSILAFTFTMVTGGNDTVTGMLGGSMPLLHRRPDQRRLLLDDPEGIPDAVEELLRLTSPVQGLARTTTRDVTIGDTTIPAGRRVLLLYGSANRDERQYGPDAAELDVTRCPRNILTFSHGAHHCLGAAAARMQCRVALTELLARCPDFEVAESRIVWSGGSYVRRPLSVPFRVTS
Excerpt: (§1) Binding assay using CYP130, CYP130 (G234) or CYP142.

Cytochrome P450 130 [2] = target: T2, Cytochrome P450 130 (Mycobacterium tuberculosis (strain ATCC 25618 / H37Rv), UniProt P9WPN5)
T2 sequence (P9WPN5 whole entry): T1 sequence (P9WPN4 whole entry)
Excerpt: as §1

[3] = target: T3, Steroid C26-monooxygenase (Mycobacterium tuberculosis (strain CDC 1551 / Oshkosh), UniProt P9WPL4)
T3 sequence (P9WPL4 whole entry): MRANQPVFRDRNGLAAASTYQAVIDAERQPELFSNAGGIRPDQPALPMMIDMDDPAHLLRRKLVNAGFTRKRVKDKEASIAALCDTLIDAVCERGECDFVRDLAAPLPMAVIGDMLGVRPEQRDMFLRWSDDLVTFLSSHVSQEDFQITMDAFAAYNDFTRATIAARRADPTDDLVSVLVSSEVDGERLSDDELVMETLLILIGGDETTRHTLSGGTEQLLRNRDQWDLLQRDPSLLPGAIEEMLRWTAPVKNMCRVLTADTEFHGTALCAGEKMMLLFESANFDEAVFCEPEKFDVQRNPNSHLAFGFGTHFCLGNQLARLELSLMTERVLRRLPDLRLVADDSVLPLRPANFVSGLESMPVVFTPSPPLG
Excerpt: as §1

Compound | Kd (Cytochrome P450 130 [1]) [µM] | Kd (Cytochrome P450 130 [2]) [µM] | Kd [3] [µM]
Cc1cccc(-n2cnc3cc(N)ccc32)c1 [Arylamine compound 4] | 4.8 | 32.6 | –
NCc1ccccc1 | 9990 | 10000 | 0.1
Clc1ccc(COC(Cn2ccnc2)c2ccc(Cl)cc2Cl)cc1 (stereo unspecified) [ECONAZOLE] | 1.93 | 4.5 | 0.33
Clc1ccccc1C(c1ccccc1)(c1ccccc1)n1ccnc1 | 13.3 | 6.1 | –
Nc1ccc(Sc2ccc(N3C(=O)c4ccc(N)cc4C3=O)cc2)cc1 [Arylamine compound 2] | 1.08 | 4.9 | 0.17
Nc1ccccc1 [Aniline] | 55.2 | 2500 | 59.2
